Laboratory results from patent US12180187B2, “1-phenyl-5-azinylpyrazolyl-3-oxyalkyl acids and their use for controlling unwanted plant growth” (BAYER AKTIENGESELLSCHAFT, priority 2019, dated 2024).

Columns and labels:
[1] = tested on: DIGSA; assay: Pre-emergence action against DIGSA, 1280 g/ha; format: in vivo, Digitaria sanguinalis; details: visual scoring after about 3 weeks vs untreated controls, 100% = plants have died, 0% = like control plants
Method in brief: (§1)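 Weed seeds sown in sandy loam in pots, covered with soil; compound as WP or EC applied to soil surface as aqueous suspension/emulsion with 0.5% additive at 600 L/ha water. Greenhouse, good growth conditions; visual % damage vs untreated controls after about 3 weeks (100% = plants dead, 0% = like control).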

[2] = tested on: LOLRI; assay: Pre-emergence action against LOLRI, 1280 g/ha; format: in vivo, Lolium rigidum; details: visual scoring after about 3 weeks vs untreated controls, 100% = plants have died, 0% = like control plants; for pest or weed control at 1280 g/ha: Lolium rigidum, 504 h
Method in brief: as §1

[3] = tested on: AVEFA; assay: Pre-emergence action at 320 g/ha against AVEFA; format: in vivo; details: visual scoring after about 3 weeks vs untreated controls; for pest or weed control at 320 g/ha: Avena fatua, 504 h
Method in brief: (§2)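 Weed seeds sown in pots and covered with soil; compounds formulated as WP or EC were sprayed onto the soil surface as aqueous suspension or emulsion with 0.5% additive at 600 l/ha water. Pots kept in greenhouse; activity scored visually after about 3 weeks versus untreated controls (100% = plants dead, 0% = like control).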

[4] = tested on: VERPE; assay: Pre-emergence action at 320 g/ha against VERPE; format: in vivo, Veronica persica; details: visual scoring after about 3 weeks vs untreated controls; for pest or weed control at 320 g/ha: Veronica persica, 504 h
Method in brief: as §2

[5] = tested on: VIOTR; assay: Pre-emergence action at 320 g/ha against VIOTR; format: in vivo, Viola tricolor; details: dosage 320 g/ha; for pest or weed control at 320 g/ha: Viola tricolor, 504 h
Method in brief: as §2

[6] = tested on: ALOMY; assay: Post-emergence action against ALOMY, 1.28 kg/ha; format: in vivo, Alopecurus myosuroides; details: dosage 1280 g/ha, visual rating about 3 weeks after treatment vs untreated controls
Method in brief: (§3)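 Visual rating against untreated plants about 3 weeks after spraying gives % activity, where 0% means like controls and 100% means plants died. Plants were treated post-emergence at the one-leaf stage with compound formulated as wettable powder or emulsion concentrate, applied at 600 L water/ha plus 0.5% additive.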

[7] = tested on: DIGSA; assay: Post-emergence action against DIGSA, 1.28 kg/ha; format: in vivo, Digitaria sanguinalis; details: dosage 1280 g/ha, visual rating about 3 weeks after treatment vs untreated controls
Method in brief: as §3

[8] = tested on: ECHCG; assay: Post-emergence action against ECHCG, 1.28 kg/ha; format: in vivo, Echinochloa crus-galli; details: dosage 1280 g/ha, visual rating about 3 weeks after treatment vs untreated controls; for pest or weed control at 1280 g/ha: Echinochloa crus-galli, 504 h
Method in brief: as §3

[9] = tested on: LOLRI; assay: Post-emergence action against LOLRI, 1.28 kg/ha; format: in vivo, Lolium rigidum; details: dosage 1280 g/ha, visual rating about 3 weeks after treatment vs untreated controls
Method in brief: as §3

[10] = tested on: SETVI; assay: Post-emergence action against SETVI, 1.28 kg/ha; format: in vivo, Setaria viridis; details: dosage 1280 g/ha, visual rating about 3 weeks after treatment vs untreated controls
Method in brief: as §3

[11] = tested on: AMARE; assay: Post-emergence action against AMARE, 1.28 kg/ha; format: in vivo, Amaranthus retroflexus; details: dosage 1280 g/ha, visual rating about 3 weeks after treatment vs untreated controls (100% = plants died)
Method in brief: as §3

[12] = tested on: MATIN; assay: Post-emergence action against MATIN, 1.28 kg/ha; format: in vivo, Tripleurospermum inodorum (Matricaria inodora); details: dosage 1280 g/ha, visual rating about 3 weeks after treatment vs untreated controls (100% = plants died)
Method in brief: as §3

[13] = tested on: ALOMY; assay: Post-emergence action against ALOMY, 320 g/ha; format: in vivo, Alopecurus myosuroides; details: dosage 320 g/ha, visual rating about 3 weeks after treatment vs untreated controls (100% = plants died)
Method in brief: (§4)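 Herbicidal effect is scored by eye about 3 weeks after a foliar spray and expressed as percent activity, with untreated plants as 0% and dead plants as 100%. Treatment is applied at the one-leaf stage of greenhouse-grown, soil-sown plants, at a water rate of 600 l/ha containing 0.5% additive.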

[14] = tested on: ABUTH; assay: Post-emergence action at 320 g/ha against ABUTH; format: in vivo, Abutilon theophrasti; details: visual rating about 3 weeks after treatment vs untreated controls
Method in brief: as §4

[15] = tested on: AMARE; assay: Post-emergence action at 320 g/ha against AMARE; format: in vivo, Amaranthus retroflexus; details: visual rating about 3 weeks after treatment vs untreated controls; for pest or weed control at 320 g/ha: Amaranthus retroflexus, 504 h
Method in brief: as §4

[16] = tested on: VIOTR; assay: Post-emergence action at 320 g/ha against VIOTR; format: in vivo, Viola tricolor; details: visual rating about 3 weeks after treatment vs untreated controls; for pest or weed control at 320 g/ha: Viola tricolor, 504 h
Method in brief: as §4

[17] = tested on: ABUTH; assay: Post-emergence action against ABUTH, 1.28 kg/ha; format: in vivo, Abutilon theophrasti; details: dosage 1280 g/ha, visual rating about 3 weeks after treatment vs untreated controls (100% = plants died)
Method in brief: as §3

Row | SMILES | Pre-emergence action against DIGSA [1] | pest or weed control at 1280 g/ha [2] | pest or weed control at 320 g/ha [3] | pest or weed control at 320 g/ha [4] | pest or weed control at 320 g/ha [5] | Post-emergence action against ALOMY [6] | Post-emergence action against DIGSA [7] | pest or weed control at 1280 g/ha [8] | Post-emergence action against LOLRI [9] | Post-emergence action against SETVI [10] | Post-emergence action against AMARE [11] | Post-emergence action against MATIN [12] | Post-emergence action against ALOMY [13] | Post-emergence action against ABUTH in % [14] | pest or weed control at 320 g/ha [15] | pest or weed control at 320 g/ha [16] | Pre-emergence action against LOLRI [2] | Pre-emergence action against AVEFA in % [3] | Pre-emergence action against VERPE in % [4] | Pre-emergence action against VIOTR in % [5] | further results
1 | O=C(O)COc1nn(-c2ccccc2F)c(-c2ccc(F)nc2)c1Br [VII-003, {[4-Bromo-1-(2-fluorophenyl)-5-(6-fluoropyridin-3-yl)-1H-pyrazol-3-yl]oxy}acetic acid] | 100% | 100% | 90% | 100% | 100% | 90% | 100% | 90% | 100% | 90% | 100% | 100% | 80% | 80% | 90% | 90% |  |  |  |  | 
2 | COC(=O)[C@@H](C)Oc1nn(-c2ccccc2F)c(-c2cncnc2)c1Br [VI-011, Methyl (2R)-2-{[4-bromo-1-(2-fluorophenyl)-5-(pyrimidin-5-yl)-1H-pyrazol-3-yl]oxy}propanoate] | 100% | 100% | 80% | 90% | 100% | 100% | 100% | 100% | 100% | 100% |  |  | 90% | 90% | 80% | 90% |  |  |  |  | 
3 | CCOC(=O)COc1nn(-c2ccc(F)cc2F)c(-c2ccc(F)nc2)c1Cl [VII-016] |  |  |  |  |  |  |  |  | 90% | 90% | 90% | 100% | 90% | 90% |  |  | 100% | 90% | 90% | 90% | Post-emergence action against ECHCG [8]: 90%; Post-emergence action against ABUTH [17]: 90%; Post-emergence action against AMARE in % [15]: 90%; Post-emergence action against VIOTR in % [16]: 80%
4 | CCOC(=O)C(C)Oc1nn(-c2ccccc2F)c(-c2ccc(F)nc2)c1Br (stereo not drawn) [VII-019] | 100% |  |  |  |  | 100% | 100% |  | 100% | 90% | 90% |  | 100% | 80% |  |  | 100% | 90% | 100% | 100% | Post-emergence action against ECHCG [8]: 100%; Post-emergence action against AMARE in % [15]: 80%; Post-emergence action against VIOTR in % [16]: 90%
5 | COC(=O)C(C)Oc1nn(-c2ccccc2)c(-c2ccc(F)nc2)c1Cl (stereo not drawn) [VII-023, Methyl 2-{[4-chloro-5-(6-fluoropyridin-3-yl)-1-phenyl-1H-pyrazol-3-yl]oxy}propanoate] | 90% | 100% | 90% | 80% | 100% |  | 90% | 90% | 100% |  |  | 90% | 90% | 90% | 90% | 80% |  |  |  |  | 
